Holding throughout (assay): NCI tumour cell line growth inhibition, 48 h
Assay [1] deals with A498 renal.
For assay [2], the system named is CCRF-CEM leukemia.
In assay [3] the test system is IGROV1 ovarian.
Assay [4] relates to MDA-MB-231 breast.
The subject of assay [5] is MOLT-4 leukemia.
Assay [6] has as its system NCI/ADR-RES ovarian.
Assay [7] has as its system SK-MEL-5 melanoma.
In assay [8] the test system is TK-10 renal.
Assay [9] relates to UO-31 renal.
The test system of assay [10] is HOP-62 NSCLC.

The structures appear in SMILES notation.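 96-well plates; 48 h exposure; 5 concentrations. Endpoints by linear interpolation between flanking doses. Not reached: highest tested concentration assigned. GI50 marks 50% less growth. The concentration for full growth arrest is given as TGI.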

As to `COC(C)C(O)(C(=O)OCC1=CCN2CCC(O)C12)C(C)(C)O` (stereo not drawn), the TGI in assay [1], in [2], in [3], in assay [4], in assay [5] and in assay [6] was over 100 µM in each case. Moreover, the TGI in assay [7], in [8] and in [9] was over 100 µM in each case.

For `O=C(Nc1cccc(C(F)(F)F)c1)Oc1ccc(Cl)c2cccnc12`, the GI50 in assay [1] was 3.82 µM; in assay [2] it was 0.708 µM; in assay [10], 2.99 µM; in [3], 1.22 µM; in assay [4], 2.11 µM; in assay [5] it was 0.86 µM. Besides, the GI50 in assay [6] is 1.23 µM; in assay [7], 1.31 µM; in [8], 4.1 µM; in [9], 1.06 µM. Also, the TGI in [1] was found to be 12.4 µM; in assay [2], 16.1 µM; in [10], 11 µM; in assay [3] it was 4.43 µM; in assay [4], 6.15 µM; in assay [5], 22.8 µM. The TGI came to 16.8 µM in assay [6], 2.88 µM in assay [7], 21.4 µM in assay [8] and 5.39 µM in assay [9].

On to `C[C@@H]1CC[C@@]2(NC1)O[C@H]1C[C@H]3[C@@H]4CC[C@H]5C[C@@H](O)CC[C@]5(C)[C@H]4CC[C@]3(C)[C@H]1[C@@H]2C`, for which the TGI in assay [1], in assay [2], in assay [10], in assay [3], in assay [4] and in assay [5] was over 100 µM each time. Also, the TGI in [6], in assay [7], in assay [8] and in assay [9] was over 100 µM throughout.

Consider `COc1ccc(-c2cc(=O)c3c(O)c(OC)c(OC)c(OC)c3o2)cc1`, for which the TGI is over 27.6 µM in assay [1]; over 100 µM in assay [2]; over 100 µM in assay [10]; over 100 µM in assay [3]; over 72 µM in assay [4]; over 100 µM in assay [5]. For the same compound, the TGI in assay [6], in assay [7], in assay [8] and in [9] was over 100 µM each time.

For the compound `CN(N)c1nc(N)c(C#N)c(C#N)c1C#N`, the TGI in assay [2], in assay [10], in assay [3], in assay [4], in [5] and in assay [6] was over 10 µM in each case. Moreover, the TGI in [7] and in [8] was over 10 µM each time.

With `COc1c(N2CCN(CN3C(=O)C(=Nc4ccc(S(=O)(=O)Nc5ncccn5)cc4)c4cc(Cl)ccc43)C(C)C2)c(F)cc2c(=O)c(C(=O)O)cn(C3CC3)c12` (stereo not drawn), the GI50 in assay [10] was 18.2 µM; in assay [3], 15.8 µM; in assay [4] it was 8.28 µM; in assay [5], 33.3 µM; in assay [6], 12.3 µM; in [7], 7.99 µM. Besides, the figures for the GI50 in assay [8] and in assay [9] were 13.3 µM and 37.5 µM, respectively. The TGI was over 50 µM in assay [10]; over 50 µM in assay [3]; 31 µM in assay [4]; over 50 µM in assay [5]; 38.1 µM in assay [6]; 15.8 µM in assay [7]. Further, the results for the TGI in assay [8] and in assay [9] were 35.2 µM and over 50 µM, respectively.

Consider `CCN(Cc1c(F)cccc1Cl)c1ccc(CO)c(Cl)c1`, for which the GI50 in [1] was under 0.0146 µM; in assay [2] it was 16.2 µM; in assay [10] it was 0.174 µM; in assay [4], 13.3 µM; in assay [5] it was 17.1 µM; in [6], 10.4 µM. In addition, the results for the GI50 in assay [7] and in assay [9] were 0.5 µM and 12.9 µM, respectively. The TGI was determined as 0.0457 µM in [1]; 39 µM in [2]; 18.3 µM in assay [10]; 27.1 µM in [4]; 39.8 µM in [5]; 28.7 µM in assay [6]. In addition, the TGI in assay [7] worked out at 20.1 µM; in assay [9] it was 26.1 µM.

For the compound `O=C1NC(c2ccccc2)C2(C(=O)O)CN(C3CC3)c3cc(N4CCNCC4)c(F)cc3C2N1` (stereo not drawn), the GI50 in assay [2], in assay [10], in assay [3], in [4], in assay [5] and in assay [6] was over 100 µM throughout. The GI50 in assay [7], in assay [8] and in assay [9] was over 100 µM each time. In addition, the TGI in assay [2], in [10], in assay [3], in assay [4], in assay [5] and in assay [6] was over 100 µM each time. Besides, the TGI in [7], in assay [8] and in assay [9] was over 100 µM in each case.

With `CCOC(=O)C1=C(C)NC(c2ccco2)=C(C#N)C1c1cccc([N+](=O)[O-])c1` (stereo not drawn), the GI50 in [2] is 0.0186 µM; in assay [10], 0.0174 µM; in assay [3] it was 0.0157 µM; in assay [4] it was 0.0443 µM; in assay [5] it was 0.0445 µM; in assay [8], 3.06 µM. The GI50 in [9] is 0.14 µM. Moreover, the TGI in [2] was determined as 32.4 µM; in [10], 17.2 µM; in assay [3], 3.28 µM; in [4], 4.53 µM; in assay [6], 0.356 µM; in assay [7], 0.311 µM. Also, the TGI in assay [8] turned out to be 49.4 µM; in assay [9], 27.9 µM.

Take `N#Cc1cc(S(=O)(=O)Nc2nc3ccccc3o2)c(SCc2ccccc2)cc1Cl`: the GI50 in assay [1] was 21.3 µM; in assay [10], 21.4 µM; in assay [3] it was 22 µM; in [4] it was 24.8 µM; in assay [6] it was 29.6 µM; in [7] it was 17 µM. Besides, the GI50 in assay [8] is 52 µM; in assay [9], 20.4 µM. Also, the TGI in [1] was 43.7 µM; in assay [10], 43.6 µM; in [3], 54.8 µM; in [4] it was 62.9 µM; in assay [6], 75.8 µM; in assay [7], 31.9 µM. For the same compound, the TGI in [8] was over 100 µM; in assay [9] it was 39.2 µM.

The record behind these values is PubChem BioAssay (NCI).
